Each compound was assayed against T1, HCV NS3 helicase (Hepatitis C virus genotype 1b, UniProt P26663) (assay: HCV Helicase Prompt FRET Assay (Example A)). Conditions: HCV NS3 helicase; tables do not say whether Example A or Example B assay; read-out: IC50 Activity.
T1 construct: full-length NS3 (1-631), purified at Array BioPharma
Type: biochemical
Protocol: Test compounds were diluted to 2.5 mM by adding 6 uL of a 10 mM solution of the compound to 18 uL of DMSO in a 384-well Costar polypropylene plate. Serial dilutions (2.5×) were performed in the plate using DMSO as the diluent. 1 ul of solution was transferred from each well to a new 384-well Costar polypropylene plate.
A 2× mixture was prepared containing 100 nM helicase substrate, 500 nM helicase capture strand (CS), and 600 μM ATP by diluting stock solutions with assay buffer consisting of 25 mM MOPS, pH 7.0, and 1.5 mM MgCl2, 0.005% (v/v) Triton X-100. Stock helicase substrate was prepared by annealing a FAM-labeled oligonucleotide to a BHQ-1 labeled oligonucleotide, which were both custom synthesized and HPLC-purified at Biosearch Technologies. The FAM-labeled and BHQ-labeled oligonucleotide had the following sequences:
The helicase capture strand was custom synthesized and purified at Integrated DNA Technologies. The helicase capture strand had the following sequence:
The ATP solution was prepared in MilliQ water, pH adjusted to approximately 7 with NaOH. ATP powder was obtained from Sigma (A-7699). The concentration was determined via A260 (ext. coeff=15,400 M^−1cm^−1).
11.5 μL of assay buffer was added to all wells of the plate containing luL of test compound. 5 μL of the Compound/assay buffer mixture was added to a black polystyrene 384-well Proxiplate. A 4× Enzyme solution was prepared by diluting enzyme stock containing full-length NS3 (1-631), purified at Array BioPharma, with assay buffer. 5 μL of the 4× Enzyme solution was added to the Proxiplate and incubated for 5 minutes (for control wells lacking enzyme, assay buffer was used instead). 10 μL of 2× substrate/CS/ATP mixture was then added to all wells of Proxiplate. The final assay conditions included 50 nM Substrate, 250 nM Capture Strand, 300 μM ATP, 5 or 6 nM Enzyme, and 2% (v/v) DMSO. The reaction proceeded for 70 cycles (˜30 min.) on an Envision at room temperature. The plate was read using the Envision (top mirror=FITC; Excitation filter=FITC 485; Emission filter=FITC 535). The fluorescence intensity was recorded for a total of 30 minutes. The initial rates of the reactions was calculated and used to calculate IC50 values. The IC50 curve fitting was performed using either a 4-parameter or 5-parameter logistic equation.

T1 sequence (P26663 1027-1657): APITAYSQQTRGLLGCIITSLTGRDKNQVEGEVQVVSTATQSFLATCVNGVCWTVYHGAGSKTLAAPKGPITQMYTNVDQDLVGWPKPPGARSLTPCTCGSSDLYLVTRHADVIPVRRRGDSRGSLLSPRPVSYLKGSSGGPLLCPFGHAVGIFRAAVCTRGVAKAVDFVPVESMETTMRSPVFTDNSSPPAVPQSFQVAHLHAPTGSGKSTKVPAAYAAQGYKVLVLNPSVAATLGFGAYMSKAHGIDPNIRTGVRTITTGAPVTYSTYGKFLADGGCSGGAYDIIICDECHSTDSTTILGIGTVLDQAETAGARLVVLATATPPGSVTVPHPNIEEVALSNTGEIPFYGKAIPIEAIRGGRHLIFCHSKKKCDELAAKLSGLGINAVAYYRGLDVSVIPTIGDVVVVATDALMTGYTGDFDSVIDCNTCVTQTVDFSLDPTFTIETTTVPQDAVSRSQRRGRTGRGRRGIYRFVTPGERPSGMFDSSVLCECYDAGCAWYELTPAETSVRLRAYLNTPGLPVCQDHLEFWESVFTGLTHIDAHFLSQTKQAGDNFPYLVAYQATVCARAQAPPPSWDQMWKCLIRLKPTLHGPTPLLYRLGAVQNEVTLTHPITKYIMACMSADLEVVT

Row | IC50 | SMILES
1 | 10 to 50 µM | Cc1cc(-c2cccc(Cn3cc(CC(=O)O)c4cc(OCc5ccccc5)ccc43)c2)on1 [Example 124]
2 | 10 to 50 µM | O=C(O)Cc1cn(Cc2csc(-c3ccccc3)n2)c2ccc(OCc3ccccc3)cc12 [Example 125]
3 | 10 to 50 µM | O=C(O)Cc1cn(Cc2noc(-c3ccccc3)n2)c2ccc(OCc3ccccc3)cc12 [Example 126]
4 | 10 to 50 µM | O=C(O)Cc1cn(Cc2cccc(-c3c[nH]nn3)c2)c2ccc(OCc3ccccc3)cc12 [Example 127]
5 | 10 to 50 µM | CCOC(=O)c1ccc(Cn2cc(CC(=O)O)c3cc(OCc4ccccc4)ccc32)o1 [Example 128]
6 | < 10 µM | O=C(O)Cc1cn(Cc2cccc(-c3cccc(Cl)c3)c2)c2ccc(OCc3ccccc3)cc12 [Example 129]
7 | 10 to 50 µM | O=C(O)Cc1cn(Cc2cccc(-c3cccnc3)c2)c2ccc(OCc3ccccc3)cc12 [Example 130]
8 | < 10 µM | O=C(O)Cc1cn(Cc2cccc(-c3cn[nH]c3)c2)c2ccc(OCc3ccccc3)cc12 [Example 131]
9 | 10 to 50 µM | O=C(O)Cc1cn(Cc2csc3ccc(F)cc23)c2ccc(Br)cc12 [Example 132]
10 | 10 to 50 µM | O=C(O)Cc1cn(Cc2csc3ccc(F)cc23)c2ccccc12 [Example 133]
11 | 10 to 50 µM | O=C(O)Cc1cn(Cc2cc(F)cc(C(F)(F)F)c2)c2ccc(Br)cc12 [Example 134]
12 | < 10 µM | O=C(O)Cc1cn(Cc2csc3ccc(Br)cc23)c2ccc(Br)cc12 [Example 135]
13 | < 10 µM | COc1ccc2scc(Cn3cc(CC(=O)O)c4cc(Br)ccc43)c2c1 [Example 136]
14 | 10 to 50 µM | O=C(O)Cc1cn(Cc2ccc(Cl)s2)c2ccc(Br)cc12 [Example 137]
15 | 10 to 50 µM | O=C(O)Cc1cn(Cc2cc(-c3ccccc3)no2)c2ccc(Br)cc12 [Example 138]
16 | < 10 µM | CC(C)Oc1ccc2scc(Cn3cc(CC(=O)O)c4cc(Br)ccc43)c2c1 [Example 140]
17 | 10 to 50 µM | CC(C)Oc1ccc2scc(Cn3cc(CC(=O)O)c4cc(Br)ccc43)c2c1 [Example 141]
18 | 10 to 50 µM | CCOc1ccc2scc(Cn3cc(CC(=O)O)c4ccccc43)c2c1 [Example 142]
19 | 10 to 50 µM | O=C(O)Cc1cn(-c2ccc3ccccc3c2)c2ccccc12 [Example 143]

Row | IC50 | SMILES
20 | < 10 µM | COc1cccc(-c2ccc(-n3cc(CC(=O)O)c4ccccc43)cc2)c1 [Example 144]
21 | < 10 µM | O=C(O)Cc1cn(-c2ccc(-c3cccc(Cl)c3)cc2)c2ccccc12 [Example 145]
22 | < 10 µM | Cc1ccc2sc(-n3cc(CC(=O)O)c4ccccc43)cc2c1 [Example 146]
23 | 10 to 50 µM | O=C(O)Cc1cn(-c2ccc3sccc3c2)c2ccccc12 [Example 147]
24 | 10 to 50 µM | O=C(O)Cc1cn(-c2ccc3c(c2)CCC3=O)c2ccccc12 [Example 148]
25 | < 10 µM | CCc1cc2cc(-n3cc(CC(=O)O)c4ccccc43)ccc2s1 [Example 149]
26 | < 10 µM | Cc1c(Cl)cccc1-c1ccc(-n2cc(CC(=O)O)c3ccccc32)cc1 [Example 150]
27 | < 10 µM | O=C(O)Cc1cn(-c2ccc(-c3cc(Cl)cc(Cl)c3)cc2)c2ccccc12 [Example 151]
28 | < 10 µM | O=C(O)Cc1cn(-c2ccc(-c3cccc(C(F)(F)F)c3)cc2)c2ccccc12 [Example 152]
29 | < 10 µM | O=C(O)Cc1cn(-c2ccc(-c3ccccc3Cl)cc2)c2ccccc12 [Example 153]
30 | < 10 µM | Cc1ccccc1-c1ccc(-n2cc(CC(=O)O)c3ccccc32)cc1 [Example 154]
31 | < 10 µM | CSc1cccc(-c2ccc(-n3cc(CC(=O)O)c4ccccc43)cc2)c1 [Example 155]
32 | 10 to 50 µM | Cc1cc(NC(=O)Cc2ccccc2)ccc1-n1cc(CC(=O)O)c2ccccc21 [Example 156]
33 | 10 to 50 µM | Cc1cc(NC(=O)Cc2cccs2)ccc1-n1cc(CC(=O)O)c2ccccc21 [Example 157]
34 | 10 to 50 µM | Cc1cc(NC(=O)c2cccs2)ccc1-n1cc(CC(=O)O)c2ccccc21 [Example 158]
35 | 10 to 50 µM | Cc1cc(NC(=O)CSc2ccccc2)ccc1-n1cc(CC(=O)O)c2ccccc21 [Example 159]
36 | 10 to 50 µM | CC(=O)N(C)c1ccc(-n2cc(CC(=O)O)c3ccccc32)c(C)c1 [Example 160]
37 | < 10 µM | O=C(O)Cc1cn(-c2ccc(NCc3ccccc3)cc2)c2ccccc12 [Example 161]

Continued, compound first:

Row | SMILES | IC50
38 | O=C(O)Cc1cn(Cc2csc3ccc(Cl)cc23)c2ccc(Br)cc12 [Example 100] | 10 to 50 µM
39 | O=C(O)Cc1cn(Cc2cccc(OCc3ccccc3)c2)c2ccc(Br)cc12 [Example 101] | < 10 µM
40 | CC(C)c1ccc(Cn2cc(CC(=O)O)c3cc(Br)ccc32)cc1 [Example 102] | 10 to 50 µM
41 | O=C(O)Cc1cn(Cc2ccccc2C(F)(F)F)c2ccc(Br)cc12 [Example 103] | 10 to 50 µM
42 | O=C(O)Cc1cn(CCCc2ccccc2)c2ccc(Br)cc12 [Example 104] | 10 to 50 µM
43 | O=C(O)Cc1cn(Cc2cccc(Oc3ccccc3)c2)c2ccc(Br)cc12 [Example 105] | < 10 µM
44 | COc1ccc2c(c1)c(CC(=O)O)cn2Cc1csc2ccc(Cl)cc12 [Example 106] | 10 to 50 µM
45 | COc1ccc2c(c1)c(CC(=O)O)cn2Cc1cccc(OCc2ccccc2)c1 [Example 107] | 10 to 50 µM
46 | O=C(O)Cc1cn(Cc2cccc(Cl)c2)c2ccc(Br)cc12 [Example 108] | 10 to 50 µM
47 | O=C(O)Cc1cn(Cc2ccc(-c3ccccc3)cc2)c2ccc(Br)cc12 [Example 109] | < 10 µM
48 | O=C(O)Cc1cn(Cc2ccc(Cl)c(Cl)c2)c2ccc(Br)cc12 [Example 110] | 10 to 50 µM
49 | COc1cccc(Cn2cc(CC(=O)O)c3cc(Br)ccc32)c1 [Example 111] | 10 to 50 µM
50 | O=C(O)Cc1cn(Cc2cccc(-c3ccccc3)c2)c2ccc(OCc3ccccc3)cc12 [Example 112] | < 10 µM
51 | O=C(O)Cc1cn(Cc2cccc(Br)c2)c2ccc(OCc3ccccc3)cc12 [Example 113] | 10 to 50 µM
52 | CC(C)c1ccc(Cn2cc(CC(=O)O)c3cc(OCc4ccccc4)ccc32)cc1 [Example 114] | 10 to 50 µM
53 | O=C(O)Cc1cn(Cc2cccc(Oc3ccccc3)c2)c2ccc(OCc3ccccc3)cc12 [Example 115] | < 10 µM
54 | O=C(O)Cc1cn(Cc2cccc(OCc3ccccc3)c2)c2ccccc12 [Example 116] | 10 to 50 µM
55 | CN(C)C(=O)c1cccc(-c2cccc(Cn3cc(CC(=O)O)c4cc(OCc5ccccc5)ccc43)c2)c1 [Example 117] | 10 to 50 µM
56 | Cc1cc(-c2cccc(Cn3cc(CC(=O)O)c4cc(OCc5ccccc5)ccc43)c2)ccc1F [Example 118] | < 10 µM
57 | O=C(O)Cc1cn(Cc2cccc(-c3cncnc3)c2)c2ccc(OCc3ccccc3)cc12 [Example 119] | 10 to 50 µM
58 | O=C(O)Cc1cn(Cc2cccc(Oc3ccc(F)cc3)c2)c2ccc(OCc3ccccc3)cc12 [Example 120] | < 10 µM
59 | O=C(O)Cc1cn(Cc2csc3ccc(Cl)cc23)c2ccccc12 [Example 121] | 10 to 50 µM
60 | O=C(O)Cc1cn(Cc2ccc(-c3ccccc3)cc2)c2ccc(OCc3ccccc3)cc12 [Example 122] | < 10 µM
61 | O=C(O)Cc1cn(Cc2cccc(I)c2)c2ccc(OCc3ccccc3)cc12 [Example 123] | < 10 µM

Same assay, conditions: Table 27, compounds made using Scheme 34

Row | IC50 Activity | SMILES
62 | B or C | CCOC(=O)Cc1cn(Cc2c(C)sc3ccc(Cl)cc23)c2cc(-c3cc(N)cc(N)c3)ccc12 [Compound 617]

Same assay, conditions: Table 30, compounds made using Scheme 37; read-out: IC50 Activity

Row | IC50 | SMILES
63 | 10 to 50 µM | CCOC(=O)Cc1cn(Cc2cccc(N(C)c3ccccc3Cl)c2)c2cc(-c3cccc(O)c3)ccc12 [Compound 624]

— patent publication US20090047246A1, “NOVEL INHIBITORS OF HEPATITIS C VIRUS REPLICATION” (InterMune, Inc., priority 2007, published 2009)
